Experimental data taken from patent US20020026052A1, “3-cyanoquinolines, 3-cyano-1,6-naphthyridines, and 3-cyano-1,7-naphthyridines as protein kinase inhibitors” (American Home Products Corporation, priority 2000, published 2002).
“And” between values parts separate entries of the source, which are not always exact repeats. Identical values can stand only once.

Key:
Src = Src (Homo sapiens, UniProt P12931); assay: c-Src Kinase Assay (ELISA); type: biochemical
Description: Inhibitors of Src (partially purified preparation purchased from Upstate Biotechnologies) tyrosine kinase activity are analyzed in an ELISA format. […] Horseradish Peroxidase (HRP)-conjugated anti-phosphotyrosine is used to detect phosphorylated peptide via a color reaction. Conditions recommended by the manufacturer are employed.
Reaction conditions: Five microliter aliquots of each compound prepared fresh at the time of the assay are added as a solution in lOmM HEPES pH 7.5, 10% DMSO to the reaction well. Thirty-five microliters of reaction mix containing Src, buffer and peptide/bovine serum albumin mix are added to the compound wells and incubated at 30° C. for 10 minutes (reaction buffer: 5 OmM TrisHCI pH 7.5, l0 mM MgCl2, O.lmM EGTA, 0.5 mM Na3 VO4)-1H-. The reaction is started by addition of 10 microliters of ATP, incubated at 30° C. for 1 hour, and stopped by addition of 20 microliters of 0.5 M EDTA. The reaction mixture with the phosphorylated peptide is then transferred to a streptavidin-coated microtiter plate (provided in the kit) and allowed to bind for 20 minutes. IUnbound peptide and reaction mixture is decanted and the plate is washed with PBS six times. HRP-conjugated phosphotyrosine antibody supplied in the kit is incubated with the plate for one hour, then decanted. The plate is again washed with PBS six times.
Activity is determined as % inhibition as calculated by the formula: (1−Abs/Abs(max) ) ×100=% inhibition.

[1] = target: Rat2 fibroblasts stably transformed with v-Src/Hu c-Src fusion gene (Homo sapiens, UniProt P12931, cells depend on it, form not given); assay: Anchorage Independent Src-transformed Fibroblast Proliferation Assay; type: cell-based, Rat; details: suspension growth, MTS reagent on Day 5; read-out: anch-indep src-tx fib IC50
Description: Anchorage Independent Src-transformed Fibroblast Proliferation Assay
Rat2 fibroblasts stably transformed with a plasmid containing a CMV promotor controlled v-Src/Hu c-Src fusion gene in which the catalytic domain of human c-Src was inserted in place of the v-Src catalytic domain in the v-Src gene are used for the measurement of src dependent suspension growth. […] Multiple entries for a given compound indicate that it was tested multiple times.

IC50 (Src)	GI50 [1]	melting point	Compound	ELISA c-src % inhibition (Src; at 10 nM)
36 nM	7300 nM	–	4-(2,4-Dichloro-5-methoxyanilino)-7-(3-formyl)-3-quinolinecarbonitrile [Example 112]	–
170 nM	> 10000 nM	269 to 270 °C	COc1cc(Nc2c(C#N)cnc3cc(-c4cc5ccccc5s4)ccc23)c(Cl)cc1Cl [Example 120, 7-(1-benzothien-2-yl)-4-(2,4-dichloro-5-methoxyanilino)-3-quinolinecarbonitrile]	–
22 nM	6500 nM	190 to 191 °C	COc1cc(Nc2c(C#N)cnc3cc(C#CCN4CCOCC4)ccc23)c(Cl)cc1Cl [Example 146, 4-(2 ,4-Dichloro-5-methoxyanilino)-7-[3-(4-morpholinyl)-1-propynyl]-3-quinolinecarbonitrile]	–
–	> 10000 nM	210 to 212 °C	COc1ccc(-c2ccc3c(Nc4cc(OC)c(Cl)cc4Cl)c(C#N)cnc3c2)cc1 [Example 194, 4-(2,4-Dichloro-5-methoxyanilino)-7-(4-methoxyphenyl)-3-quinolinecarbonitrile]	–
–	> 10000 nM	141 to 144 °C	COc1cc(Nc2c(C#N)cnc3cc(-c4cnc(C=O)n4C)c(OC)cc23)c(Cl)cc1Cl [Example 228, 4-(2,4-Dichloro-5-methoxyanilino)-7-(2-formyl-1-methyl-1H-imidazol-5-yl)-6-methoxy-3-quinolinecarbonitrile]	–
–	450 nM	256 to 258 °C	COc1cc(Nc2c(C#N)cnc3cc(-c4ccc(CNCCc5ccccn5)cc4)ccc23)c(Cl)cc1Cl [Example 229, 4-(2,4-Dichloro-5-methoxyanilino)-7-[4-({[2-(2-pyridinyl)ethyl]amino}-methyl)phenyl]-3-quinolinecarbonitrile]	–
–	390 nM	278 to 280 °C	COC(=O)C1CCN(Cc2ccc(-c3ccc4c(Nc5cc(OC)c(Cl)cc5Cl)c(C#N)cnc4c3)cc2)CC1 [Example 231, Methyl 1-{4-[3-cyano-4-(2,4-dichloro-5-methoxyanilino)-7-quinolinyl]benzyl}-4-piperidinecarboxylate]	–
–	3500 nM	248 to 252 °C	COc1cc(Nc2c(C#N)cnc3cc(-c4cnc(CN5CCOCC5)n4C)c(OC)cc23)c(Cl)cc1Cl [Example 232, 4-(2,4-Dichloro-5-methoxyanilino)-6-methoxy-7-[1-methyl-2-(4-morpholinylmethyl)-1H-imidazol-5-yl]-3-quinolinecarbonitrile]	–
–	720 nM	140 to 143 °C	COc1cc(Nc2c(C#N)cnc3cc(-c4ccc(CN5CCOCC5)cc4)ccc23)c(Cl)cc1C [Example 234, 4-(2-Chloro-5-methoxy4-methylanilino)-7-[4-(4-morpholinylmethyl)phenyl]3-quinolinecarbonitrile]	–
–	790 nM	174 to 178 °C	COc1cc(Nc2c(C#N)cnc3cc(-c4ccc(CN5CCOCC5)cc4)ccc23)c(Cl)cc1F [Example 235, 4-(2-Chloro-4-fluoro-5-methoxyanilino)-7-[4-(4-morpholinylmethyl)phenyl]-3-quinolinecarbonitrile]	–
–	570 nM	160 to 163 °C	COc1ccc(Cl)c(Nc2c(C#N)cnc3cc(-c4ccc(CN5CCOCC5)cc4)ccc23)c1 [Example 236, 4-(2-Chloro-5-methoxyanilino)-7-[4-(4-morpholinylmethyl)phenyl]-3-quinolinecarbonitrile]	–
–	490 nM and 520 nM and 410 nM	248 °C	COc1cc(Nc2c(C#N)cnc3cc(-c4ccc(CN5CCC(C(=O)O)CC5)cc4)ccc23)c(Cl)cc1Cl [Example 237, 1-{4-[3-Cyano-4-(2,4-dichloro-5-methoxyanilino)-7-quinolinyl]benzyl}-4-piperidinecarboxylic acid]	–

Continued, compound first:

Compound	IC50 (Src)	GI50 [1]	melting point	ELISA c-src % inhibition (Src; at 10 nM)
4-[(2,4-Dichloro-5-methoxyphenyl) amino]-7-[4-(4-morpholinyl) phenyl]-3-quinolinecarbonitrile [Example 128]	3.2 nM	640 nM	–	–
COc1cc(Nc2c(C#N)cnc3cc(/C=C/c4ccccn4)ccc23)c(Cl)cc1Cl [Example 3, 4-(2,4-Dichloro-S-methoxyanilino)-7-[(E)-2-(2-pyrdinyl)ethenyl]-3-quinoline-carbonitrile]	11 nM	–	–	–
COc1cc(Nc2c(C#N)cnc3cc(-c4ccc(C=O)s4)ccc23)c(Cl)cc1Cl [Example 52, 4-(2,4-dichloro-5-methoxyanilino)-7-(5-formyl-2-thienyl)-3-quinolinecarbonitrile]	11 nM	–	> 300 °C (dec.)	–
COc1cc(Nc2c(C#N)cnc3cc(-n4cccc4)c(OC)cc23)c(Cl)cc1Cl [Example 59, 4-(2,4-Dichloro-5-methoxyanilino)-6-methoxy-7-(1H-pyrrol-1-yl)-3-quinolinecarbonitrile]	12 nM and 15 nM	–	229 to 230 °C	–
COc1cc(Nc2c(C#N)cnc3cc(-c4ccc(CNCCc5ccccn5)o4)ccc23)c(Cl)cc1Cl [Example 74, 4-(2,4-Dichloro-5-methoxyanilino)-7-[5-({[2-(2-pyridinyl)ethyl]amino}methyl)-2-furyl]-3-quinolinecarbonitrile]	40 nM	1400 nM	130 to 135 °C	–
COc1cc(Nc2c(C#N)cnc3cc(-c4ccc(CN5CCC(O)CC5)s4)ccc23)c(Cl)cc1Cl [Example 89, 4-(2,4-dichloro-5-methoxyanilino)-7-{5-[(4-hydroxy-1-piperidinyl)methyl]-2-thienyl}-3-quinolinecarbonitrile]	0.52 nM and 0.84 nM	90 nM	–	–
COc1cc(Nc2c(C#N)cnc3cc(-n4cccc4CN(C)C)ccc23)c(Cl)cc1Cl [Example 93]	610 nM and 680 nM	> 10000 nM	157 to 158 °C	–
COc1cc(Nc2c(C#N)cnc3cc(-c4ccc(-c5nnn[nH]5)cc4)ccc23)c(Cl)cc1Cl [Example 105]	10 nM	> 10000 nM and 5900 nM	–	–
COc1cc(Nc2c(C#N)cnc3cc(-c4ccc(-c5ccccc5)cc4)ccc23)c(Cl)cc1Cl [Example 165, 7-[1,1-Biphenyl]-4-yl-4-(2,4-dichloro-5-methoxyanilino)-3-quinolinecarbonitile]	–	> 10000 nM	–	28% at 10 nM
(1-{4-[3-Cyano-4-(2,4-dichloro-5-methoxyanilino)-7-quinolinyl]benzyl }-4-piperidinyl) acetic acid [Example 100]	0.57 nM	340 nM and 400 nM	–	–
(E)-3-[3-Cyano-4-(2,4-dichloro-5-methoxyanilino)-7-quinolinyl]-2-propenoic acid [Example 99]	44 nM	> 10000 nM	–	–
